US11800866B2, “Methods for control of pests” (Bio-Gene Technology Limited, priority 2018, dated 2023)
Values after ≈ are worked out from the molar mass of the structure shown. Like-named read-outs stand apart in the source and are kept apart here.

Experiments:
Assay type in all cases: in vivo
[1] = tested on: cotton aphid (Aphis gossypii); assay: field trial, control of cotton aphid in cotton
Procedure: A field trial was conducted on a small plot of cotton in March 2018 to evaluate flavesone for the control of cotton aphid in cotton. The trial was conducted near Burren Junction in the Lower Namoi Valley Region of New South Wales, Australia. The trial was conducted in a crop grown as per standard commercial practice. It was precision planted on hills in rows 1 m apart and furrow flood irrigated. The crop was fully irrigated being watered as required over the duration of the season. The crop matured to produce good yield, typical of the region for the season. Light rainfall occurred at 6 and 7 days after treatment (DAT). The maximum temperature ranged from 28 to 38° C. and minimum temperature ranged from 14 to 23° C.
The plot was 4 m×8 m and four replicates were used. The plot was infested with cotton aphid at a moderate to high level with 36% of leaves infested pre-spray. The population on the untreated cotton increased over the duration of the trial with 83% leaves infested at 7 DAT.
The crop was either left untreated (control), treated with flavesone (Flavocide 500 EW) at varying concentrations or treated with Pirimor® (pirimicarb, positive control) as set out in Table 3:
The test solution was applied by broadcast method using a hand held boom sprayer with nozzles (Spraying Systems TT110015 flat fans) spaced 50 cm apart, with pressure being 250 kPa. Application speed was 1.5 m/s and the application volume was 105 L/ha.
The effectiveness of the application was evaluated on day 0 and 3 and 7 DAT. 20 leaves in the upper canopy of the plants in each plot were inspected and the number of aphids on each leaf recorded. The percentage of leaves infested and the mean number of aphids per leaf was then determined.
Statistical analyses were conducted using GenStat 64-bit Release 17.1 (PC/Windows Server 2008, VSN International Ltd). The model includes all treatment effects. Analysis of variance and least significant difference (LSD) procedures were used. Further means of separation was achieved by transforming the data using Square Root (x+0.5) or Log Base 10.

[2] = tested on: green peach aphid (Myzus persicae); assay: leaf dip assay on Chinese cabbage leaves, green peach aphid
Procedure: The efficacy of flavesone against green peach aphid (Myzus persicae) was tested in a similar leaf dip assay as set out in Example 1, but used Chinese cabbage leaves, and 10 to 100,000 mg/L flavesone concentrations. The green peach aphids used were cultured in the laboratory from field collected insects.

[3] = tested on: Russian Wheat Aphid (Diuraphis noxia); assay: leaf dip method on wheat leaf segments, Russian Wheat Aphid; details: for LC50: concentration giving 50% mortality, 95% CIs
Procedure: The efficacy of flavesone against Russian Wheat Aphid (Diuraphis noxia) was assessed using the leaf dip method described in Moores et al 1994 (Pesticide Biochemistry and Physiology, 49, 114-120), adapted for use with cereal aphids by using wheat leaf segments.
Serially diluted concentrations of flavesone (1 to 30000 mg/L) were tested at rates designed to include the expected field rate in cereals (Table 1), along with a control of water. Leaf segments (25 mm) cut from wheat (Triticum aestivum) plants were submerged for 1 second in the insecticide solutions or water (control), and placed adaxial side up on 10 g/L agar in 35 mm petri dishes. Once leaves were air-dry, eight 3-4 day old D. noxia nymphs were transferred to insecticide-dipped leaf segments using a fine-haired paintbrush. The population used was originally collected from Dingee (VIC) and maintained in the laboratory under a 18:6 LD cycle at 12-20° C. since June 2016.
The petri dishes were then inverted onto a lid containing a 25 mm diameter filter paper to control humidity, and were placed at 18° C.±2° C. with a photoperiod of 16:8 LD cycle. Six replicates were used for each concentration tested, and responses were assessed after 48 and 96 hours. Aphids were scored as alive (vibrant and moving freely), dead (not moving over a 5 second period), or incapacitated (inhibited movement).
Dose-response curves were generated by plotting percentage mortality against log concentration. Mortality data was analysed using a logistic regression model with random effects. Logistic regression is suited for the analysis of binary response data (i.e. dead/alive) with the random effect component of the model controlling for the non-independence of mortality scores within replicates. […] Analyses were conducted using R version 3.3.1 (R Development Core Team 2018, R: A language and environment for statistical computing. R Foundation for Statistical Computing, Vienna, Austria. http//www.R-project.org).

CC(C)C(=O)C1C(=O)C(C)(C)C(=O)C(C)(C)C1=O [Flavesone, 1-isobutyroyl-3,3,5,5-tetramethylcyclohexan-2,4,6-trione]
Mean Number of Cotton Aphid per leaf ([1]; 0.1% v/v, 0 DAT (pre-spray)): 1.5 ab | Mean Percentage of Leaves infested with cotton Aphid ([1]; 0.1% v/v, 0 DAT (pre-spray)): 34% | Mean Number of Cotton Aphid per leaf ([1]; 0.1% v/v, 3 DAT): 1.1 ab | Mean Percentage of Leaves infested with cotton Aphid ([1]; 0.1% v/v, 3 DAT): 15% | Mean Number of Cotton Aphid per leaf ([1]; 0.1% v/v, 7 DAT): 2.5 bc | Mean Percentage of Leaves infested with cotton Aphid ([1]; 0.1% v/v, 7 DAT): 43 c % | Mean Number of Cotton Aphid per leaf ([1]; 0.25% v/v, 0 DAT (pre-spray)): 2.6 b | Mean Percentage of Leaves infested with cotton Aphid ([1]; 0.25% v/v, 0 DAT (pre-spray)): 43% | Mean Number of Cotton Aphid per leaf ([1]; 0.25% v/v, 3 DAT): 2.1 ab | Mean Percentage of Leaves infested with cotton Aphid ([1]; 0.25% v/v, 3 DAT): 39% | Mean Number of Cotton Aphid per leaf ([1]; 0.25% v/v, 7 DAT): 3.1 c | Mean Percentage of Leaves infested with cotton Aphid ([1]; 0.25% v/v, 7 DAT): 38 bc % | Mean Number of Cotton Aphid per leaf ([1]; 0.50% v/v, 0 DAT (pre-spray)): 1.1 . . . ab | Mean Percentage of Leaves infested with cotton Aphid ([1]; 0.50% v/v, 0 DAT (pre-spray)): 30% | Mean Number of Cotton Aphid per leaf ([1]; 0.50% v/v, 3 DAT): 1.0 ab | Mean Percentage of Leaves infested with cotton Aphid ([1]; 0.50% v/v, 3 DAT): 19% | Mean Number of Cotton Aphid per leaf ([1]; 0.50% v/v, 7 DAT): 2.4 bc | Mean Percentage of Leaves infested with cotton Aphid ([1]; 0.50% v/v, 7 DAT): 40 c % | Mean Number of Cotton Aphid per leaf ([1]; 0.75% v/v, 0 DAT (pre-spray)): 1.4 ab | Mean Percentage of Leaves infested with cotton Aphid ([1]; 0.75% v/v, 0 DAT (pre-spray)): 33% | Mean Number of Cotton Aphid per leaf ([1]; 0.75% v/v, 3 DAT): 3.4 b | Mean Percentage of Leaves infested with cotton Aphid ([1]; 0.75% v/v, 3 DAT): 34% | Mean Number of Cotton Aphid per leaf ([1]; 0.75% v/v, 7 DAT): 2.7 bc | Mean Percentage of Leaves infested with cotton Aphid ([1]; 0.75% v/v, 7 DAT): 50 c % | Mean Number of Cotton Aphid per leaf ([1]; 1.00% v/v, 0 DAT (pre-spray)): 0.6 a | Mean Percentage of Leaves infested with cotton Aphid ([1]; 1.00% v/v, 0 DAT (pre-spray)): 26% | Mean Number of Cotton Aphid per leaf ([1]; 1.00% v/v, 3 DAT): 0.2 a | Mean Percentage of Leaves infested with cotton Aphid ([1]; 1.00% v/v, 3 DAT): 9% | Mean Number of Cotton Aphid per leaf ([1]; 1.00% v/v, 7 DAT): 1.0 ab | Mean Percentage of Leaves infested with cotton Aphid ([1]; 1.00% v/v, 7 DAT): 19 b % | control of cotton aphid ([1]; highest 1% v/v rate): slightly better control | toxicity to green peach aphid ([2]; 10 to 100,000 mg/L): toxic to green peach aphid | concentration at which mortality responses began to increase ([2]; 48 hours): 1000 mg/L | concentration at which mortality increased ([2]; 96 hours): 1000 mg/L | mortality at 10000 µg/mL ([2]; Myzus persicae, foliar, 10,000 mg/L, 96 hours): 100% | mortality at 30000 µg/mL ([2]; Myzus persicae, foliar, 30,000 mg/L, 48 hours exposure): 100% | toxicity to D. noxia ([3]; 1-30,000 mg a.i./L): toxic to D. noxia | LC50 ([3]; Diuraphis noxia, foliar, exposure time not given, read-out: LC50): 405 mg/L (≈ 1610 µM) | mortality at 3000 µg/mL ([3]; Diuraphis noxia, foliar, 3,000 mg a.i./L, largest increase, read-out: increase of mortality between 48 and 96 hours): 58% | mortality at 30000 µg/mL ([3]; Diuraphis noxia, foliar, 30,000 mg a.i./L, 48 hours exposure): 100% | LC50 ([3]; exposure time not given): 405.4 mg a.i./L | LC90 ([3]; concentration giving 90% mortality, exposure time not given): 1.5 × 10^4 mg a.i./L | LC99 ([3]; concentration giving 99% mortality, exposure time not given): 8.1 × 10^5 mg a.i./L | concentration at which mortality began to increase ([3]; in vivo): 300 mg a.i./L
